In US5935969A, “Pyrido-thiopyrandoinazoles with antitumor activity” (University of Vermont, priority 1998, dated 1999):
≈ marks a conversion by molar mass, not a printed value. Like-named read-outs stand apart in the source and are kept apart here.

How the values were obtained:
LoVo = experiment: MTT cytotoxicity, human colon adenocarcinoma LoVo; assay type: cell-based; conditions: read-out: IC50 LoVo (concentration causing 50% inhibition of tumor cells growth)
Method: (§1) The evaluation of the biological activity for the compounds of this invention was performed "in vitro" and "in vivo" following the protocols developed by the U.S. National Cancer Institute.
(§2) The evaluation of the "in vitro" cytotoxic activity of the compounds of the invention was performed using the following cell lines: a murine sarcoma (S-180) and its subline expressing multidrug resistance (S-180/A-10), a leukemia (L1210), a human colon adenocarcinoma cell line (LoVo) isolated from a metastatic nodule and its subline expressing multidrug resistance. This latter subline is resistant to a number of antitumor agents, among which are doxorubicin, VP-16 and vincristine.
(§3) The columns headed L1210, S180 LoVo and LoVo/Dx contain the IC50 values against said tumor cell lines, as above described.
(§4) CYTOTOXICITY ON LOVO AND LOVO/DX WAS DETERMINED BY MTT ASSAY FOLLOWING 1

[1] = W.H.O. grade; phase I and phase II clinical trials; cited from earlier work
[2] = rat; cited from earlier work
LoVo/Dx [3] = experiment: MTT cytotoxicity, multidrug-resistant subline LoVo/DX; assay type: cell-based, human; conditions: for IC50: Homo sapiens, read-out: IC50 LoVo/Dx (concentration causing 50% inhibition of tumor cells growth)
Method: as §1, §2
The columns headed L1210, S180 LoVo and LoVo/Dx contain the IC50 values against said tumor cell lines, as above described. […]
as §4

[4] = humans; cited from earlier work
S180 = experiment: MTT cytotoxicity, murine sarcoma S-180; assay type: cell-based; conditions: Mus musculus; murine sarcoma S-180, MTT assay; read-out: IC50 S180 (concentration causing 50% inhibition of tumor cells growth)
Method: as §1, §2, §3

L1210 = experiment: MTT cytotoxicity, leukemia L1210; assay type: cell-based; conditions: Mus musculus, MTT assay, read-out: IC50 L1210 (concentration causing 50% inhibition of tumor cells growth)
Method: as §1, §2, §3

LoVo/Dx [5] = conditions: in words; cited from earlier work
[6] = in vivo; cited from earlier work
[7] = cited from earlier work
[8] = tested on: cell histotypes developing resistance against doxorubicin mediated by overexpression of glycoprotein P; conditions: MDR; cited from earlier work
[9] = tested on: advanced breast cancer, acute leukemia and lymphoma; conditions: cited from earlier work
[10] = i.p., non-tumor bearing rats, equieffective antitumor dosages; cited from earlier work
[11] = MTT assay, following 1 hour of drug exposure
[12] = LoVo/Dx multidrug-resistant subline, MTT assay, following 1 hour of drug exposure
[13] = in animals, versus mitoxantrone

SMILES | IC50 (S180) | IC50 (L1210) | IC50 (LoVo; [11]) | IC50 (LoVo/Dx [3]; [12]) | also measured
O=C1c2c(O)cccc2-c2nn(CCNCCO)c3ccc(NCCNCCO)c1c23 [CI-941] | – | – | – | – | IC50 (LoVo; 1 h): 0.053 µg/mL (≈ 0.125 µM); leukopenia (dose limiting) [1]: grade 3 and 4; neutropenia (dose limiting) [1]: grade 4; nephrotoxicity [2]: marked nephrotoxicity; IC50 (LoVo/Dx [3]; LoVo/DX, 1 h): 44.5 µg/mL (≈ 105 µM); activity in the resistant cell line (LoVo/Dx [3]; LoVo/DX, in words): loses completely its activity; cardiotoxicity [4]: irreversible cardiotoxicity; symptoms of cardiac failure or acute cardiac events [4]: no symptoms of cardiac failure or acute cardiac events
CN(C)CCn1nc2c3c(c([N+](=O)[O-])ccc31)Sc1ncccc1-2 [Example 1] | 0.17 µg/mL (≈ 0.498 µM) | 0.08 µg/mL (≈ 0.234 µM) | – | – | –
CN(C)CCn1nc2c3c(c([N+](=O)[O-])ccc31)Sc1cnccc1-2 [Example 3, N,N-dimethyl-5-nitro-2H-pyrido[4',3':5,6]thiopyrano[4,3,2-cd]indazole-2-ethanamine] | 0.14 µg/mL (≈ 0.41 µM) | 0.05 µg/mL (≈ 0.146 µM) | – | – | –
CN(C)CCn1nc2c3c(c([N+](=O)[O-])ccc31)Sc1ccncc1-2 [Example 4, N,N-dimethyl-5-nitro-2H-pyrido[3',4':5,6]thiopyranol[4,3,2cd]indazole-2-ethanamine] | 0.0032 µg/mL (≈ 0.00937 µM) | 0.00062 µg/mL (≈ 0.00182 µM) | – | – | –
CN(C)CCn1nc2c3c(c(N)ccc31)Sc1ccncc1-2 [Example 5, N,N-dimethyl-5-amino-2H-pyrido[3',4':5,6]thiopyrano[4,3,2-cd]indazole-2-ethanamine] | 0.0066 µg/mL (≈ 0.0212 µM) | 0.003 µg/mL (≈ 0.00963 µM) | 0.016 µg/mL (≈ 0.0514 µM) | 0.027 µg/mL (≈ 0.0867 µM) | –
CN(C)CCNc1ccc2c3c(nn2CCN(C)C)-c2cccnc2Sc13 [Example 6, N'-[2-[2-(dimethylamino)ethyl]-2H-pyrido[3',2':5,6]thiopyrano[4,3,2-cd]indazol-5-yl]--N,N-dimethyl-1,2-ethanediamine] | 0.028 µg/mL (≈ 0.0732 µM) | 0.008 µg/mL (≈ 0.0209 µM) | 2.4 µg/mL (≈ 6.27 µM) | 2.6 µg/mL (≈ 6.8 µM) | –
CN(C)CCn1nc2c3c(c(NCCN)ccc31)Sc1ncccc1-2 [Example 7, N'-[2-[2-(dimethylamino)lethyl]-2H-pyrido[3',2':5,6]thiopyrano[4,3,2-cd]indazol-5-yl]l-1,2-ethanediamine] | 0.058 µg/mL (≈ 0.164 µM) | 0.0125 µg/mL (≈ 0.0353 µM) | 0.027 µg/mL (≈ 0.0762 µM) | 16.8 µg/mL (≈ 47.4 µM) | –
CN(C)CCn1nc2c3c(c(NCCN)ccc31)Sc1ccncc1-2 [Example 8] | 0.0029 µg/mL (≈ 0.00818 µM) | 0.0016 µg/mL (≈ 0.00451 µM) | 0.008 µg/mL (≈ 0.0226 µM) | 0.26 µg/mL (≈ 0.733 µM) | –
COc1cc(C2c3cc4c(cc3C(OC3OC5COC(C)OC5C(O)C3O)C3COC(=O)C23)OCO4)cc(OC)c1O (stereo not shown) [VP-16] | – | – | – | – | resistance of the LoVo/DX subline (LoVo/Dx [5]): resistant
O=C1c2ccccc2C(=O)c2c(NCCNCCO)ccc(NCCNCCO)c21 [ametantrone, 1,4-bis[(2-(2-hydroxyethylamino)ethyl)amino]anthracene-9,10-dione] | – | – | – | – | myelodepressive toxicity [6]: remarkable myelodepressive toxicity; cardiotoxicity relative to mitoxantrone [7, 13]: about 10 -fold less; potency relative to mitoxantrone [7, 13]: about 10 -fold less; cross-resistance to doxorubicin-resistant cell histotypes [8]: cross-resistance
COc1cccc2c1C(=O)c1c(O)c3c(c(O)c1C2=O)C[C@@](O)(C(=O)CO)C[C@@H]3O[C@H]1C[C@H](N)[C@H](O)[C@H](C)O1 [doxorubicin, reference compound] | – | – | – | – | IC50 (LoVo; 1 h): 0.58 µg/mL (≈ 1.07 µM); IC50 (LoVo/Dx [3]; LoVo/DX, 1 h): 53.8 µg/mL (≈ 99 µM); accumulation of doxorubicin in LoVo/DX (LoVo/Dx [5]): reduced accumulation; resistance of the LoVo/DX subline (LoVo/Dx [5]): resistant
CN(C)CCn1nc2c3c(c(NCCN)ccc31)Sc1cnccc1-2 [ex.9-cpd 30, N'-[2-[2-(dimethylamino)ethyl]-2H-pyrido[4',3':5,6]thiopyrano[4,3,2-cd]indazol-5-yl]-1,2-ethanediamine] | 0.058 µg/mL (≈ 0.164 µM) | 0.014 µg/mL (≈ 0.0395 µM) | – | – | –
CN(C)CCn1nc2c3c(c(NC(=O)CN)ccc31)Sc1ncccc1-2 [ex. 10-cpd 1, N'-[2-(2-dimethylamino)ethyl]-5-(2'-amino-acetylamino)-2H-pyrido[3',2':5,6]thiopyrano [4,3,2-cd]indazole] | 0.22 µg/mL (≈ 0.597 µM) | 0.03 µg/mL (≈ 0.0814 µM) | – | – | –
CN(C)CCn1nc2c3c(c(NC(=O)CN)ccc31)Sc1ccncc1-2 [ex. 10-cpd 2, N'-[2-(2-dimethylamino)ethyl]-5-(2'-amino-acetylamino)-2H-pyrido[3',4':5,6]thiopyrano [4,3,2-cd]indazole] | – | – | 0.04 µg/mL (≈ 0.109 µM) | 0.21 µg/mL (≈ 0.57 µM) | –
CCN(CC)CCn1nc2c3c(c([N+](=O)[O-])ccc31)Sc1ccncc1-2 [ex. 11-cpd 1, N,N-diethyl-5-nitro-2 H-pyrido[3',4': 5,6]thiopyrano[4,3,2-cd]indazole-2-ethanamine] | 0.0031 µg/mL (≈ 0.00839 µM) | 0.00061 µg/mL (≈ 0.00165 µM) | – | – | –
CCN(CC)CCn1nc2c3c(c([N+](=O)[O-])ccc31)Sc1ncccc1-2 [ex. 11-cpd 2, N,N-diethyl-5-nitro-2H-pyrido[3',2':5,6]thiopyrano[4,3,2-cd]indazole-2-ethanamine] | 0.22 µg/mL (≈ 0.595 µM) | 0.2 µg/mL (≈ 0.541 µM) | – | – | –
CCN(CC)CCn1nc2c3c(c(N)ccc31)Sc1ccncc1-2 [ex. 12-cpd 1, N,N-diethyl-5-amino-2H-pyrido[3',4':5,6]thiopyrano[4,3,2-cd]indazole-2-ethanamine] | 0.0031 µg/mL (≈ 0.00913 µM) | 0.0015 µg/mL (≈ 0.00442 µM) | 0.036 µg/mL (≈ 0.106 µM) | 0.094 µg/mL (≈ 0.277 µM) | –
O=C1c2c(O)ccc(O)c2C(=O)c2c(NCCNCCO)ccc(NCCNCCO)c21 [mitoxantrone, 5,8-dihydroxy-1,4-bis[(2-(2-hydroxyethylamino)ethyl)amino]anthracene-9,10-dione] | – | – | – | – | myelodepressive toxicity [6]: remarkable myelodepressive toxicity; clinical activity ([9]; clinical trials, advanced breast cancer, acute leukemia and lymphoma): particularly promising activity; clinical cardiotoxicity ([9]; mostly in patients previously treated with doxorubicin): some clinical cardiotoxicity has been observed; IC50 (LoVo; 1 h): 0.024 µg/mL (≈ 0.054 µM); IC50 (LoVo/Dx [3]; LoVo/DX, 1 h): 0.67 µg/mL (≈ 1.51 µM); cardiotoxicity in comparison to doxorubicin ([7]; animal studies): diminished cardiotoxicity in comparison to doxorubicin; delayed toxicity [10]: a delayed toxicity is observed only with mitoxantrone
CC[C@]1(O)C[C@H]2CN(CCc3c([nH]c4ccccc34)[C@@](C(=O)OC)(c3cc4c(cc3OC)N(C=O)[C@H]3[C@@](O)(C(=O)OC)[C@H](OC(C)=O)[C@]5(CC)C=CCN6CC[C@]43[C@@H]65)C2)C1 [vincristine] | – | – | – | – | resistance of the LoVo/DX subline (LoVo/Dx [5]): resistant
